Reference: patent US20130111611A1, “METHOD TO MEASURE THE METABOLIC RATE OR RATE OF GLUCOSE CONSUMPTION OF CELLS OR TISSUES WITH HIGH SPATIOTEMPORAL RESOLUTION USING A GLUCOSE NANOSENSOR” (CARNEGIE, INSTITUTION OF WASHINGTON, priority 2010, published 2013)

Tested on: cultured astrocytes
Assay: Intracellular glucose and glycolytic rate in cultured astrocytes with FRET glucose nanosensor (ITM)
Format: cell-based, mouse
Conditions: for glycolytic rate obtained with the GLUT inhibitor: cultured astrocytes, n=20 cells in three paired experiments, not significantly different between inhibitors; for effect on the intracellular concentration of glucose: cultured astrocytes exposed to the compound, FIG. 3a
From the text: In another embodiment, the disruption of the glucose steady-state can be attained by blocking the glucose transporter GLUT with a suitable inhibitor (ITM).
Independent of the embodiment of the method used to disrupt the steady-state, the rate of glycolysis is estimated by fitting a monoexponential function to the time course of decay. In one embodiment, the metabolic rate is computed from the rate of glucose concentration decrease at the point when the intracellular concentration becomes equal to the extracellular concentration, for instance at 0.3 mM (interrupted line in FIG. 2b). In a second embodiment, in the presence of a GLUT blocker, the metabolic rate is computed from the rate of glucose concentration decrease at any glucose concentration.
Animals used were mixed F1 male mice (C57BU6J×CBA/J), kept in an animal room under SPF conditions at a room temperature of 20±2° C., in a 12/12 h light/dark cycle with free access to food and water. All experiments were approved by the Centro de Estudios Científicos Animal Care and Use Committee. Mixed cortical cultures of neuronal and glial cells were prepared from 1-3 day-old neonatal mice as described in Loaiza et al.^19, except that N1-N2/MEM was replaced by B27-supplemented Neurobasal medium (Gibco). Cultures were maintained at 37° C. in a humidified atmosphere of 5% CO2. At days 5-7, cultures in 35 mm dishes were transfected with 5 μg plasmid DNA using Lipofectamine 2000 (Gibco) or alternatively, exposed to 5×10^6 PFU of adenoviral vector.
Experiments were carried out at room temperature (22-25° C.). Cultured cells were imaged in HEPES-buffered saline containing (in mM): 136 NaCl, 3 KCl, 1.25 CaCl2, 1.25 MgSO4, 1-2 glucose, 2 sodium lactate, 10 HEPES, pH 7.4 or in 95% O2/5% CO2-gassed buffer of the following composition (in mM): 112 NaCl, 3 KCl, 1.25 CaCl2, 1.25 MgCl2, 1-2 glucose, 2 sodium lactate, 10 HEPES, 24 NaHCO3, pH 7.4. Brain slices were superfused with a 95% O2/5% CO2-gassed buffer containing (in mM): 126 NaCl, 3 KCl, 1.25 NaH2PO4, 1.25 CaCl2, 1.25 MgCl2, 2-3 glucose, 1 sodium lactate, 26 NaHCO3, pH 7.4. When using higher K^+ concentrations, NaCl was adjusted to maintain isotonicity. Cultures and slices were imaged with an Olympus IX70 inverted microscope equipped with a 40× oil-immersion objective, a Cairn monochromator with Optosplit (Faversham, UK), and a Hamamatsu Orca camera (Hamamatsu City, Japan) controlled by Kinetics software. For FRET measurements, CFP was excited at 430 nm for 400 ms. Because of the very high FRET efficiency of FLII12 Pglu600μ ? , which results in low CFP signal^7, we opted for not using the CFP signal in our protocol. Instead, YFP/citrine was excited for 50 ms, which provided a sugar-insensitive denominator for the FRET ratio. […]

Structure (SMILES) | glycolytic rate obtained with the GLUT inhibitor | effect on the intracellular concentration of glucose
O=C(CCc1ccc(O)cc1)c1c(O)cc(O)cc1O [Phloretin] | 1.7 ± 0.3 µM/s | 
C=C1[C@@H](C)[C@H]2[C@H](Cc3ccccc3)NC(=O)[C@]23OC(=O)/C=C/[C@H](O)CCC[C@@H](C)C/C=C/[C@H]3[C@@H]1O [cytochalasin B] | 1.8 ± 0.3 µM/s | linear decrease in the concentration of glucose
C=C1[C@@H](C)[C@H]2[C@H](Cc3ccccc3)NC(=O)[C@]23[C@H](OC(C)=O)/C=C/[C@@](C)(O)C(=O)[C@@H](C)C/C=C/[C@H]3[C@@H]1O [cytochalasin D] |  | did not affect the concentration of glucose
